# Source: patent US20070128217A1 (priority 2003, published 2007)
# Legend:
# [1] = test system: control sera (pooled serum of ten healthy LUMC hospital workers; commercial negative donor pooled serum from the Dutch bloodbank); format: binding, human; parameters: Binding of Control serum LUMC to linear peptides / Binding of Control serum Blood-bank to linear peptides / Binding of Control serum LUMC to looped peptides / Binding of Control Serum Blood-Bank to Looped peptides / Binding of Control serum LUMC to linear peptides of the protein M of SARS-CoV Urbani / Binding of Control serum Blood-bank to linear peptides of the protein M of SARS-CoV Urbani / Binding of Control serum LUMC to looped peptides of the protein M of SARS-CoV Urbani / Binding of Control Serum Blood-Bank to Looped peptides of the protein M of SARS-CoV Urbani: unit not given here
# [2] = test system: antibodies in sera from SARS patients (sera 1a, 1b, 2, 6, 37, 62, London, SARS-yellow, SARS-green); format: binding, human; parameters: Binding of serum 6 to linear peptides of protein X1 of SARS-CoV Urbani / Binding of serum 37 to linear peptides of protein X1 of SARS-CoV Urbani / Binding of serum 6 to looped/cyclic peptide (PEPSCAN-ELISA) / Binding of serum 37 to looped/cyclic peptide (PEPSCAN-ELISA) / Binding of serum 37 to looped/cyclic peptides of protein X1 of SARS-CoV Urbani / Binding of serum 6 to linear peptides of protein X2 / Binding of serum 37 to linear peptides of protein X2 / Binding of serum 37 to looped/cyclic peptides of protein X2 of SARS-CoV Urbani / Binding of serum 6 to linear peptides of protein M of SARS-CoV Urbani / Binding of serum 37 to linear peptides of protein M of SARS-CoV Urbani / Binding of serum 6 to looped/cyclic peptides of protein M of SARS-CoV Urbani / Binding of serum 37 to looped/cyclic peptides of protein M of SARS-CoV Urbani / Binding of serum 6 to linear peptides of protein X3 of SARS-CoV Urbani / Binding of serum 37 to linear peptides of protein X3 of SARS-CoV Urbani / Binding of serum 37 to looped/cyclic peptides of protein X3 of SARS-CoV Urbani / Binding of serum 6 to linear peptides of protein X4 of SARS-CoV Urbani / Binding of serum 37 to linear peptides of protein X4 of SARS-CoV Urbani / Binding of serum 37 to looped/cyclic peptides of protein X4 of SARS-CoV Urbani / Binding of serum 6 to linear peptides of protein X5 of SARS-CoV Urbani / Binding of serum 37 to linear peptides of protein X5 of SARS-CoV Urbani / Binding of serum 37 to looped/cyclic peptides of protein X5 of SARS-CoV Urbani / Binding of serum 6 to linear peptides of protein N of SARS-CoV Urbani / Binding of serum 37 to linear peptides of protein N of SARS-CoV Urbani / Binding of serum 6 to linear peptide (PEPSCAN-ELISA) / Binding of serum 1a to looped/cyclic peptides of protein N of SARS-CoV Urbani / Binding of serum 1b to looped/cyclic peptides of protein N of SARS-CoV Urbani / Binding of serum 2 to looped/cyclic peptides of protein N of SARS-CoV Urbani / Binding of serum 6 to looped/cyclic peptides of protein N of SARS-CoV Urbani / Binding of serum 37 to looped/cyclic peptides of protein N of SARS-CoV Urbani / Binding of serum 62 to looped/cyclic peptides of protein N of SARS-CoV Urbani / Binding of serum London to looped/cyclic peptides of protein N of SARS-CoV Urbani / Binding of serum SARS-green to looped/cyclic peptides of protein N of SARS-CoV Urbani: unit not given here
# [3] = test system: rabbit serum obtained by immunizing a rabbit with the SARS-CoV strain Frankfurt 1; format: binding; parameters: Binding of a rabbit serum to linear peptides / Binding of a rabbit serum to looped peptides / Rabbit serum linear peptides / Rabbit serum looped peptides / Binding of a rabbit serum to linear peptides of protein N of SARS-CoV Urbani (Rabbit serum linear peptides) / Binding of a rabbit serum to looped/cyclic peptides of protein N of SARS-CoV Urbani (Rabbit serum looped peptides): unit not given here
# [4] = test system: recombinant human anti-SARS-CoV antibody 03-018; format: binding; parameters: Binding of antibody 03-018 to linear peptides of the N protein of SARS-CoV Urbani / Binding of antibody 03-018 to looped/cyclic peptides of the N protein of SARS-CoV Urbani: unit not given here
Sequence,Binding of serum 1a to linear peptides of protein N of SARS-CoV Urbani [2],Binding of serum 1a to looped/cyclic peptides of protein N of SARS-CoV Urbani [2],Binding of serum 1b to linear peptides of protein N of SARS-CoV Urbani [2],Binding of serum 1b to looped/cyclic peptides of protein N of SARS-CoV Urbani [2],Binding of serum 2 to linear peptides of protein N of SARS-CoV Urbani [2],Binding of serum 2 to looped/cyclic peptides of protein N of SARS-CoV Urbani [2],Binding of serum 6 to linear peptides of protein N of SARS-CoV Urbani [2],Binding of serum 6 to looped/cyclic peptides of protein N of SARS-CoV Urbani [2],Binding of serum 37 to linear peptides of protein N of SARS-CoV Urbani [2],Binding of serum 37 to looped/cyclic peptides of protein N of SARS-CoV Urbani [2],Binding of serum 62 to linear peptides of protein N of SARS-CoV Urbani [2],Binding of serum 62 to looped/cyclic peptides of protein N of SARS-CoV Urbani [2],Binding of serum London to linear peptides of protein N of SARS-CoV Urbani [2],Binding of serum London to looped/cyclic peptides of protein N of SARS-CoV Urbani [2],Binding of serum SARS-green to linear peptides of protein N of SARS-CoV Urbani [2],Binding of serum SARS-green to looped/cyclic peptides of protein N of SARS-CoV Urbani [2],Binding of serum SARS-yellow to linear peptides of protein N of SARS-CoV Urbani [2],Binding of serum SARS-yellow to looped/cyclic peptides of protein N of SARS-CoV Urbani [2],Binding of a rabbit serum to linear peptides of protein N of SARS-CoV Urbani (Rabbit serum linear peptides) [3],Binding of a rabbit serum to looped/cyclic peptides of protein N of SARS-CoV Urbani (Rabbit serum looped peptides) [3],also measured
RQLQNSMSGASADST,0.2,0.2,0.2,0.1,0.2,0.3,0.2,0.1,0.7,0.4,0.6,0.2,0.6,0.2,0.3,0.1,0.5,0.2,0.5,0.3,Control Serum Blood-Bank Looped peptides [1]: 0.4; Control serum Blood-bank linear peptides [1]: 0.7; Control serum LUMC linear peptides [1]: 0.6; Control serum LUMC looped peptides [1]: 0.2; Binding of antibody 03-018 to linear peptides of the N protein of SARS-CoV Urbani [4]: 0.1; Binding of antibody 03-018 to looped/cyclic peptides of the N protein of SARS-CoV Urbani [4]: 0.2
RRPQGLPNNTASWFT,0.2,0.4,0.1,0.3,0.1,0.5,0.1,0.3,0.6,0.6,0.6,0.5,0.4,0.4,0.2,0.6,0.6,0.5,0.1,0.4,Binding of Control Serum Blood-Bank to Looped peptides [1]: 0.7; Binding of Control serum Blood-bank to linear peptides [1]: 0.5; Binding of Control serum LUMC to linear peptides [1]: 0.7; Binding of Control serum LUMC to looped peptides [1]: 0.6; Binding of antibody 03-018 to linear peptides of the N protein of SARS-CoV Urbani [4]: 0.1; Binding of antibody 03-018 to looped/cyclic peptides of the N protein of SARS-CoV Urbani [4]: 0.2
